Reference: paper PMC7114321 (Antiviral Research, 2005)
Converted amounts (≈) assume the structure as drawn.

How the values were obtained:
in vitro = settings: African green monkey, CC50 of cell death
Sindbis virus = settings: cited from earlier work

## C=CCC(=NOS(=O)(=O)O)S[C@@H]1O[C@H](CO)[C@@H](O)[C@H](O)[C@H]1O (stereo in doubt) [Sinigrin]
Vero cells
  CC50: > 10 mM
  CC50 of cell death: >5000 (>10,000 μM) μg/ml

## O=C1/C(=C2\Nc3ccccc3C2=O)Nc2ccccc21 [Indigo]
In vitro
  CC50: 917 µg/mL (≈ 3.5 mM)

## COc1ccc([C@@H]2CC(=O)c3c(O)cc(O)cc3O2)cc1O [Hesperetin]
Sindbis virus
  IC50, inhibitory activity on Sindbis virus infection: 20.5 µg/mL (≈ 0.0678 mM)
Sindbis virus; read-out: IC50, inhibitory activity on Sindbis virus infection
  IC50: ~68 µM
